Measurements from patent US20230110491A1, “LUCIFERASE-BASED METHODS FOR DETECTING BACTERIAL AND FUNGAL CELLS AND ASSESSING SUSCEPTIBILITY OF BACTERIAL CELLS TO ANTIBIOTICS” (Biosynth AG, priority 2020, published 2023).
Converted amounts (≈) assume the structure as drawn.

What was measured:
[1] = tested on: Salmonella enteritidis RKI 05/07992; test: Coupled enzyme assay using pro-luciferins on solid nutrient agar with luciferase and ATP; type: cell-based; conditions: solid nutrient agar with luciferase, pro-luciferin and 1 mM ATP; approx. 10 CFU/well; 37° C.
Procedure: (§1) Nutrient agar pH 7.4 (5 g/I peptone, 5 g/I NaCl, 2 g/I yeast extract, 1 g/I meat extract, 15 g/I agar) was autoclaved and cooled to 50° C. […] Next, 40 μM D-luciferin (Biosynth AG) was added from a concentrated stock solution.
(§2) Actively growing cultures (Nutrient Broth, 37° C., OD600 0.08 to 0.33) of Staphylococcus aureus ATCC 29213 and Salmonella enteritidis RKI 05/07992 were then diluted to […] in sterile PBS and inoculated to microplate wells with agar (1 μl per well=approx. 10 CFU/well). 1 μl sterile phosphate buffered saline (PBS) was added to sterile control wells. The surrounding wells were filled with sterile water and the plate was incubated at 37° C. in a luminescence microplate reader. The luminescence was measured every 10 min (kinetic mode).
(§3) (Biosynth AG) and 1 mM ATP.

[2] = tested on: Staphylococcus aureus ATCC 29213; test: as above; type: cell-based; conditions: solid nutrient agar with luciferase, pro-luciferin and 1 mM ATP; approx. 10 CFU/well; 37° C.
Procedure: as §1, §2, §3

[3] = tested on: Ampicillin resistant (AMP^R) E. coli RKI 66/09 (AmpC); test: ATP assay for antibiotic susceptibility testing (luminescence, ATP release); type: cell-based, Escherichia coli
Procedure: (§4) Nutrient broth pH 7.4 (5 g/I peptone, 5 g/I NaCl, 2 g/I yeast extract, 1 g/I meat extract) was autoclaved and cooled to room temperature. […] Next, 0.4 mM D-luciferin (Biosynth AG) and 1 mM MgCl2 was added from concentrated stock solutions. The prepared broth was sterilized by filtration (0.2 μm), incubated for 2.5 h at 30° C. in order to burn-off background and then added to a white microplate (0.198 ml per well).
(§5) Ampicillin was added from a dilution series of a filter-sterilized, concentrated stock solution prepared in sterile ultrapure water (5 μl per well). Sterile water was added to control wells without antibiotic. Wells were inoculated with 5 μl of cell suspensions (OD 0.1, prepared in sterile PBS from agar plate pre-cultures) of either Ampicillin resistant (AMP^R) E. coli RKI 66/09 (AmpC) or Ampicillin sensitive (AMP^S) E. coli ATCC 25922. Initial cell concentration in wells was approximately 2.5×10^6 CFU/ml. The microplate was incubated at 37° C. in a luminescence microplate reader and relative luminescence units (RLU) were measured every 2 min for 8 h. For comparison, optical density (600 nm) was measured for all wells after 15 h incubation at 37° C.

[4] = tested on: Ampicillin sensitive (AMP^S) E. coli ATCC 25922; test: as above; type: cell-based, Escherichia coli
Procedure: as §4, §5

[5] = tested on: Ampicillin resistant (AMP^R) E. coli RKI 66/09 (AmpC); test: Optical density (600 nm) after 15 h incubation with ampicillin; type: cell-based, Escherichia coli; conditions: all tested ampicillin concentrations
Procedure: as §5

[6] = tested on: Ampicillin sensitive (AMP^S) E. coli ATCC 25922; test: as above; type: cell-based, Escherichia coli
Procedure: as §5

| SMILES | incubation time after which luminescence begins to strongly increase [1] | incubation time after which luminescence increases [2] | time course of ATP release ([3]; 1.56-100 μg/ml ampicillin) | dependency of onset time on ampicillin concentration ([3]; onset time = first time point with RLU above 1200, all tested concentrations) | ATP release at non-inhibitory concentration ([4]; 1.56 μg/ml ampicillin) | time after which ATP increase can be detected ([4]; at inhibitory antibiotic concentrations, cell concentrations as low as 2×10^6 CFU/ml) [min] | ATP release compared to the control without antibiotic ([4]; at the MIC or above (6.25, 25, 100 μg/ml)) | dependency of onset time on ampicillin concentration ([4]; onset time = first time point with RLU above 1200) | growth inhibition (optical density after 15 h) [5] | cell growth (optical density after 15 h) ([6]; 10-100 μg/ml ampicillin) | MIC ([6]; Escherichia coli, ATCC25922, OD 600 nm, 15 h, 37° C., read-out: MIC from optical density after 15 h) [µg/mL] |
| --- | --- | --- | --- | --- | --- | --- | --- | --- | --- | --- | --- |
| CCCCCCCC(=O)Oc1ccc(COc2ccc3nc(C4=N[C@@H](C(=O)O)CS4)sc3c2)cc1 [D-luciferin-spacer-caprylate] | about 10 hours | about 17 hours | – | – | – | – | – | – | – | – | – |
| CC1(C)S[C@@H]2[C@H](NC(=O)[C@H](N)c3ccccc3)C(=O)N2[C@H]1C(=O)O [ampicillin] | – | – | independent of ampicillin concentration | essentially the same onset time | very high amounts of ATP are released | 30 | occurs earlier and is increased | inversely correlates with ampicillin concentration | no growth inhibition | lack of cell growth | ~6 (≈ 17.2 µM) |
